Experimental data taken from the CheMixHub viscosity set.
Several values for one entry are separate records, joined by “and”; a condition that tells them apart may be missing. Equal entries are not always repeated.

Test: xn = mol fraction of the nth substance listed

O=S1(=O)CCCC1 + CCCCO
viscosity [mPa·s], 101 kPa
Settings | x1 = 0.1066 | x1 = 0.191 | x1 = 0.2871 | x1 = 0.3889 | x1 = 0.4851 | x1 = 0.5891 | x1 = 0.6937 | x1 = 0.7935 | x1 = 0.9023
303.15 K | 2.084 | 2.148 | 2.32 | 2.582 | 2.914 | 3.395 | 4.117 | 5.218 | 7.192
308.15 K | 1.855 | 1.912 | 2.06 | 2.291 | 2.59 | 3.028 | 3.676 | 4.65 | 6.369
313.15 K | 1.659 | 1.711 | 1.842 | 2.048 | 2.316 | 2.715 | 3.3 | 4.167 | 5.669

O=S1(=O)CCCC1 + CCCCOC(C)=O
viscosity [mPa·s], 101 kPa
Settings | x1 = 0.3402 | x1 = 0.7887 | x2 = 0.0164
303.15 K | – | 4.275 | –
308.15 K | 1.145 | – | 7.925

Nc1ccccc1Cl + CCCCOCCO
303.15 K, 101 kPa
Settings | viscosity [mPa·s]
x1 = 0.1461 | 3.066
x1 = 0.2298 | 3.194
x1 = 0.3377 | 3.344
x1 = 0.4573 | 3.496
x1 = 0.563 | 3.619
x1 = 0.6667 | 3.722
x1 = 0.7494 | 3.786
x1 = 0.8351 | 3.833
x1 = 0.9459 | 3.859

O=S1(=O)CCCC1 + CCCCOCCO
303.15 K, 101 kPa
Settings | viscosity [mPa·s]
x1 = 0.0491 | 1.94
x1 = 0.0999 | 1.87
x1 = 0.2 | 2.002
x1 = 0.2998 | 2.501
x1 = 0.3503 | 2.882
x1 = 0.3999 | 3.311
x1 = 0.4495 | 3.777
x1 = 0.4999 | 4.28
x1 = 0.5997 | 5.339
x1 = 0.7015 | 6.489
x1 = 0.7991 | 7.639
x1 = 0.8987 | 8.898
x1 = 0.9504 | 9.535

NCCCO + CCCC[N+](CCCC)(CCCC)CCCC.[Br-]
viscosity, 101.33 kPa
Settings | 293.15 K | 298.15 K | 303.15 K | 308.15 K | 313.15 K | 318.15 K | 323.15 K
x1 = 0.8 | 113.9 mPa·s | 84.69 mPa·s | 63.71 mPa·s | 49.65 mPa·s | 38.79 mPa·s | 30.76 mPa·s | 24.94 mPa·s
x1 = 0.9 | 79.29 mPa·s and 65.55 mPa·s | 60.03 mPa·s and 50.16 mPa·s | 46.01 mPa·s and 38.6 mPa·s | 35.84 mPa·s and 29.98 mPa·s | 28.31 mPa·s and 23.97 mPa·s | 22.73 mPa·s and 19.27 mPa·s | 18.62 mPa·s and 15.76 mPa·s

CCCCOCCOCCO + CCCO
viscosity [mPa·s], 101 kPa
Settings | 298.15 K | 308.15 K | 318.15 K
x1 = 0.011 | 1.95 | 1.525 | 1.246
x1 = 0.042 | 2.019 | 1.576 | 1.293
x1 = 0.074 | 2.098 | 1.633 | 1.337
x1 = 0.1191 | 2.202 | 1.711 | 1.409
x1 = 0.1629 | 2.325 | 1.802 | 1.488
x1 = 0.2086 | 2.446 | 1.889 | 1.576
x1 = 0.2587 | 2.587 | 2.024 | 1.669
x1 = 0.3152 | 2.748 | 2.149 | 1.767
x1 = 0.3289 | 2.787 | 2.179 | 1.795
x1 = 0.3796 | 2.959 | 2.283 | 1.89
x1 = 0.4568 | 3.213 | 2.435 | 2.034
x1 = 0.5093 | 3.371 | 2.548 | 2.123
x1 = 0.5833 | 3.615 | 2.714 | 2.263
x1 = 0.6316 | 3.764 | 2.814 | 2.346
x1 = 0.6882 | 3.928 | 2.932 | 2.442
x1 = 0.7604 | 4.153 | 3.085 | 2.564
x1 = 0.8285 | 4.361 | 3.228 | 2.677
x1 = 0.9045 | 4.598 | 3.388 | 2.797
x1 = 0.9511 | 4.734 | 3.481 | 2.875

Cc1cccc(C)c1 + CCCO
viscosity [mPa·s], 100 kPa
Settings | 298.15 K | 308.15 K
x2 = 0.0641 | 0.5986 | 0.5469
x2 = 0.125 | 0.604 | 0.5561
x2 = 0.2247 | 0.6335 | 0.5935
x2 = 0.3538 | 0.694 | 0.633
x2 = 0.4693 | 0.779 | 0.6938
x2 = 0.5733 | 0.888 | 0.7826
x2 = 0.6675 | 1.006 | 0.8918
x2 = 0.7531 | 1.144 | 0.964
x2 = 0.8313 | 1.316 | 1.102
x2 = 0.903 | 1.509 | 1.277
x2 = 0.969 | 1.796 | 1.464

O=S1(=O)CCCC1 + CCCO
viscosity [mPa·s], 101 kPa
Settings | x1 = 0.0761 | x1 = 0.1702 | x1 = 0.2436 | x1 = 0.3357 | x1 = 0.4393 | x1 = 0.5374 | x1 = 0.6403 | x1 = 0.7554 | x1 = 0.8835
303.15 K | 1.648 | 1.731 | 1.863 | 2.093 | 2.443 | 2.894 | 3.567 | 4.714 | 6.855
308.15 K | 1.477 | 1.551 | 1.671 | 1.876 | 2.191 | 2.595 | 3.198 | 4.214 | 6.07
313.15 K | 1.329 | 1.399 | 1.506 | 1.691 | 1.976 | 2.342 | 2.884 | 3.788 | 5.424

CCCCOCCOCCO + CCN(CC)CC
viscosity [mPa·s], 100 kPa
Settings | 298.15 K | 303.15 K | 308.15 K
x1 = 0.05083 | 0.4832 | 0.4499 | 0.4246
x1 = 0.1 | 0.6109 | 0.5597 | 0.5234
x1 = 0.15 | 0.7524 | 0.6836 | 0.637
x1 = 0.2 | 0.9081 | 0.8131 | 0.7543
x1 = 0.3 | 1.246 | 1.108 | 1.021
x1 = 0.3999 | 1.641 | 1.447 | 1.324
x1 = 0.5 | 2.105 | 1.837 | 1.669
x1 = 0.5999 | 2.629 | 2.278 | 2.067
x1 = 0.6995 | 3.213 | 2.776 | 2.496
x1 = 0.8 | 3.822 | 3.271 | 2.93
x1 = 0.8998 | 4.474 | 3.817 | 3.419
x1 = 0.9499 | 4.793 | 4.075 | 3.631
